Reference: PubChem BioAssay (NCI)
Values joined by “and” are separate entries in the source; they are usually repeats but may differ in a detail not shown here. Identical values can stand only once.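 Grown in 96-well plates, cells were treated for 48 hours with each compound at five concentrations. Insufficient inhibition: endpoint recorded as highest concentration tested. At the GI50, growth is halved. TGI: total growth inhibition.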

Columns and labels:
Experiment in all cases: NCI-60 cell line screen, 48 h
SF-268 CNS = system: SF-268 CNS
RXF 393 renal = system: RXF 393 renal
SK-OV-3 ovarian = system: SK-OV-3 ovarian
HOP-92 NSCLC = system: HOP-92 NSCLC
UACC-257 melanoma = system: UACC-257 melanoma
NCI/ADR-RES ovarian = system: NCI/ADR-RES ovarian
OVCAR-8 ovarian = system: OVCAR-8 ovarian
SF-295 CNS = system: SF-295 CNS
SK-MEL-2 melanoma = system: SK-MEL-2 melanoma
SK-MEL-28 melanoma = system: SK-MEL-28 melanoma

Row | Structure (SMILES) | GI50 (SF-268 CNS) | TGI (SF-268 CNS) | GI50 (RXF 393 renal) [µM] | TGI (RXF 393 renal) [µM] | GI50 (SK-OV-3 ovarian) | TGI (SK-OV-3 ovarian) | GI50 (HOP-92 NSCLC) | TGI (HOP-92 NSCLC) | GI50 (UACC-257 melanoma) | TGI (UACC-257 melanoma) | GI50 (NCI/ADR-RES ovarian) | TGI (NCI/ADR-RES ovarian) | GI50 (OVCAR-8 ovarian) | TGI (OVCAR-8 ovarian) | GI50 (SF-295 CNS) [µM] | TGI (SF-295 CNS) | GI50 (SK-MEL-2 melanoma) [µM] | TGI (SK-MEL-2 melanoma) | GI50 (SK-MEL-28 melanoma) [µM] | TGI (SK-MEL-28 melanoma)
1 | C=CC(=O)Nc1cc2c(Nc3ccc(F)c(Cl)c3)ncnc2cc1C#CC(C)(C)N1CCN(C)CC1 | 1.84 µM | 5.51 µM | 0.837 | 2.15 | 0.953 µM | 4.59 µM | 0.29 µM | 1.78 µM | 3.96 µM | 5.56 µM | 2.46 µM | 7.65 µM | 1.85 µM | 5.35 µM | 2.94 | 6.62 µM | 2.98 | 5.54 µM | 3.1 | 5.67 µM
2 | COc1ccccc1C(=O)N(Cc1ccccc1)c1ccc(Cl)c(C(=O)OC(C)C)c1 | – | > 100 µM | – | 62.1 | – | > 91.7 µM | – | > 45.5 µM | – | > 88.7 µM | – | 85.6 µM | – | > 100 µM | – | > 100 µM | – | 40.5 µM | – | > 100 µM
3 | O=c1[nH]cnc2n[nH]nc12 | – | > 94.3 µM | – | 14.4 | – | > 25.2 µM | – | > 100 µM | – | > 100 µM | 0.472 µM | > 100 µM | – | > 100 µM | – | > 53.4 µM | – | 32 µM | – | > 61.6 µM
4 | Cn1c(=O)c2c(nc(N/N=C/c3ccccc3C(=O)O)n2C)n(C)c1=O | – | > 100 µM | – | > 100 | – | > 100 µM | – | > 100 µM | – | > 100 µM | – | > 100 µM | – | > 100 µM | – | > 100 µM | – | > 100 µM | – | > 100 µM
5 | CCCCCCCCCCCCCCCC[n+]1ccccc1 | 0.452 µM and 0.861 µM | 1.71 µM and 2.57 µM | 0.224 | 0.688 | 1.03 µM and 0.692 µM | 2.5 µM and 2.72 µM | 0.21 µM and 0.335 µM | 0.753 µM and 1.4 µM | 0.534 µM and 1.56 µM | 1.95 µM and 4.67 µM | 2.56 µM and 4.38 µM | 15.1 µM and 27 µM | 0.331 µM and 0.704 µM | 1.28 µM and 3.07 µM | 0.311 | 1.42 µM | 0.468 | 1.76 µM | 1.25 | 2.56 µM
6 | O=C(O)c1ccccc1NCn1c(=S)sc2ccccc21 | – | > 100 µM | – | > 100 | – | > 100 µM | – | > 100 µM | – | > 100 µM | – | > 100 µM | – | > 100 µM | – | > 100 µM | – | > 100 µM | – | > 100 µM
7 | Clc1ccc(CN2CCCN(Cc3ccc(Cl)cc3)C2c2cc3ccccc3c3ccccc23)cc1 | – | > 100 µM | – | > 100 | – | > 100 µM | – | > 100 µM | – | 56.1 µM | – | > 100 µM | – | > 100 µM | – | > 100 µM | – | 44.1 µM | – | 54.5 µM
8 | COc1cc2c3cc1Oc1c(OC)c(OC)cc4c1C(Cc1ccc(O)c(c1)Oc1ccc(cc1)CC3N(C)CC2)N(C)CC4 (centres undefined) | 15.2 µM | 64.2 µM and 51.8 µM | 2.18 | 14.8 | 36.9 µM | 91.2 µM and > 100 µM | 17.2 µM | 94.2 µM and 41.1 µM | 5.99 µM | > 100 µM and 18.9 µM | – | > 100 µM | 21.4 µM | > 100 µM | 13.3 | 59.1 µM and 29.8 µM | 20.2 | > 100 µM and 36.6 µM | 8.49 | > 100 µM and 23.1 µM
9 | C[As](C)SC1OCC(O)C(O)C1O (centres undefined) | 0.492 µM | 2.88 µM | 0.321 | 3.39 | 0.211 µM | 4.47 µM | 0.283 µM | 2.07 µM | 1.43 µM | 7.22 µM | 0.138 µM | 0.602 µM | 0.284 µM | 2.82 µM | 7.18 | – | 0.58 | 2.53 µM | 0.387 | 3.33 µM
10 | NC1=NCN(C2OC(CO)C(O)C2O)C(=O)N1 (centres undefined) | – | 2460 µM | – | 218 | – | 943 µM | – | 1990 µM | – | 1430 µM | – | 2270 µM | – | 1870 µM | – | 1460 µM | – | 7.06 µM | – | 1660 µM
